# B1: plasmin: Human Plasmin (Enzyme Research Labs), positive control for fibrin degradation (protein, UniProt P00747 20-580; P00747 581-810, looked up)
# Plasmin heavy chain A: EPLDDYVNTQGASLFSVTKKQLGAGSIEECAAKCEEDEEFTCRAFQYHSKEQQCVIMAENRKSSIIIRMRDVVLFEKKVYLSECKTGNGKNYRGTMSKTKNGITCQKWSSTSPHRPRFSPATHPSEGLEENYCRNPDNDPQGPWCYTTDPEKRYDYCDILECEEECMHCSGENYDGKISKTMSGLECQAWDSQSPHAHGYIPSKFPNKNLKKNYCRNPDRELRPWCFTTDPNKRWELCDIPRCTTPPPSSGPTYQCLKGTGENYRGNVAVTVSGHTCQHWSAQTPHTHNRTPENFPCKNLDENYCRNPDGKRAPWCHTTNSQVRWEYCKIPSCDSSPVSTEQLAPTAPPELTPVVQDCYHGDGQSYRGTSSTTTTGKKCQSWSSMTPHRHQKTPENYPNAGLTMNYCRNPDADKGPWCFTTDPSVRWEYCNLKKCSGTEASVVAPPPVVLLPDVETPSEEDCMFGNGKGYRGKRATTVTGTPCQDWAAQEPHRHSIFTPETNPRAGLEKNYCRNPDGDVGGPWCYTTNPRKLYDYCDVPQCAAPSFDCGKPQVEPKKCPGR
# Plasmin light chain B: VVGGCVAHPHSWPWQVSLRTRFGMHFCGGTLISPEWVLTAAHCLEKSPRPSSYKVILGAHQEVNLEPHVQEIEVSRLFLEPTRKDIALLKLSSPAVITDKVIPACLPSPNYVVADRTECFITGWGETQGTFGAGLLKEAQLPVIENKVCNRYEFLNGRVQSTELCAGHLAGGTDSCQGDSGGPLVCFEKDKYILQGVTSWGLGCARPNKPGVYVRVSRFVTWIEGVMRNN
# modifications: Plasmin
# notes: Human Plasmin (Enzyme Research Labs), positive control for fibrin degradation
# How the values were obtained:
# [1] = test system: NHLF cells and diseased IPF cells (primary human lung fibroblasts) in fibrin scaffold; experiment: Microscale cell-mediated fibrinolysis assay (ATPS-printed fibroblast-laden fibrin scaffolds, brightfield pixel intensity); format: cell-based; conditions: for impact on fibroblast-mediated fibrinolysis: 400 μM pirfenidone, 0.4 μM nintedanib, 20 μM diethyl-pythiDC, NHLF and IPF cells; for rate of cell-mediated fibrinolysis (50% degradation time): 100 μM hydrogen peroxide
# Method: A stock solution of DEX (20% w/w dextran T500; Sigma) was prepared in phosphate buffered saline (PBS) on a rocker overnight. A stock solution of PEG (6% w/w, 35 k MW; Sigma) was prepared in fully supplemented culture media with 10% deionized water to balance osmolality. Both stock solutions were passed through a 0.22 um sterilizing syringe filter before storage. PEG working solutions were stored for up to 2 weeks at 4° C. Thrombin (Human Alpha Thrombin; Enzyme Research Labs) was also added to the PEG solution at a concentration of 0.1 U/mL immediately preceding experiments. Fibrinogen-DEX solutions were prepared by diluting fibrinogen stock solution (human fibrinogen 3; Enzyme Research Labs) to a final concentration of 4 mg/mL in a sterile solution of 4% 10×DMEM, 15% DEX stock solution (to a final concentration of 3% dextran), and 50% cell suspension in growth media. For all experiments excluding cell concentration evaluation, the cell suspension was diluted for 1000 cells per microliter in the final fibrinogen-DEX solution.
# Normal human lung fibroblasts (NHLF lot #0000580583; […] Cells were passaged at 80-90% confluence and were sub-cultured in 1:3 ratios by trypsinization. When at the desired confluence, cells were washed with PBS and 0.05% trypsin solution was added to the flask. Cells were incubated for 2 min, diluted with fibroblast growth media, and then harvested and centrifuged (200× g, 5 min) in a conical tube. The supernatant was aspirated and the cell pellet was re-suspended in serum-free culture media. When used in fibrin degradation experiments, cells were re-suspended at 2× the final desired concentration (1000 cells/ul unless otherwise indicated). All experiments were conducted with cells at or below passage 12. In all experiments, media was changed every 48 hours and any media additives (plasminogen, TGF-β1, drugs, etc.) were included.
# Working solutions of PEG with 0.1 U/mL of thrombin were warmed to 37° C. and pipetted into a 96-well plate. For production of droplets, fibrinogen-DEX solutions with cell suspension were maintained at 37° C. and pipetted directly into the PEG-thrombin media using either a manual pipette or a semi-automated 96-channel pipette (Viaflo-96; Integra). All assays utilized a volume of 1 μl unless otherwise noted. Following dispensing of the DEX phase, the plates were placed in an incubator at 37° C. for 30 min to allow the thrombin to enzymatically crosslink the fibrinogen into a fibrin matrix (FIG. 1A). The PEG-enriched media was then washed four times by removing, then replacing half of the media with PEG-free media. When applicable, the final media addition was supplemented with stimuli as detailed in Example 5 below. For the duration of each experiment, assay plates were imaged every 2 hours at 4× with an automated cell culture monitoring system (Incucyte S3; Essen Biosystems). After one day of culture, plasminogen (50 μg/mL) (Human Glu-Plasminogen; Enzyme Research Labs) was added as a 10× concentrated solution to each well in order to initiate assay degradation (FIG. 1B), unless otherwise noted for specific conditions. Fresh plasminogen was included with each subsequent media addition. Positive controls with active plasmin (1 U/ml) (Human Plasmin; Enzyme Research Labs) and negative controls without plasminogen were included in each experiment. As cells activated plasminogen, the fibrin scaffold progressively degraded as illustrated in FIG. 1C.
# After each experiment, brightfield images for every time point were downloaded in jpeg format from the automated cell culture monitoring system. Python's OpenCV library was implemented for the masking approach illustrated in FIG. 2A. First, a threshold was set at 50% of the maximum intensity (128 for 8-bit integer pixel values) in order to isolate the darker pixels of semi-opaque fibrin hydrogel from the background of the image. A closing morphological filter with a 25×25 kernel was then applied to each mask in order to remove noise. […]
# [2] = test system: human primary lung fibroblasts (NHLF, IPF) in fibrin micro-scaffolds; experiment: Contracting scar-in-a-drop fibroplasia assay (final projected area of cell-ECM spheroids); format: cell-based
# Method: Human primary lung fibroblasts were used in all experiments presented in this paper. Unless otherwise noted, experiments utilized normal human lung fibroblasts (NHLF B lot #0000580583; Lonza) from a person with a history of smoking. For experiments evaluating donor variability, the following cells were utilized: NHLF A (NHLF lot #0000608197; Lonza) from a person, IPF A (IPF lot #0000627840; Lonza) from a person, and IPF B (IPF lot #6F5002; Lonza) from a person. All cells were cultured in fibroblast growth media (FGM; Lonza). Cells were passaged at 80-90% confluence and were sub-cultured in 1:3 ratios by trypsinization. When at the desired confluence, cells were washed with PBS and 0.05% trypsin solution was added to the flask. Cells were incubated for 2 min, and then harvested and centrifuged ([…], 5 min) in a conical tube. The supernatant was aspirated and the cell pellet was re-suspended in FBS-free culture media. When used in fibrin degradation experiments, cells were re-suspended at 2× the final desired concentration (2500 cells/ul unless otherwise indicated). To promote collagen production and contraction in addition to fibrin degradation, serum (bovine or human) were added at 2% or higher up to about 10%. Higher cell densities (about 2500 cells/ul and higher up to about 10,000 cells/ul) also promote collagen production. All experiments were conducted with cells at or below passage 8 except for high passage experiments conducted at passage 12. In all experiments, media was changed every 48 hours and any media additives (plasminogen, TGF-β1, drugs, etc.,) were included.
# ATPS printing of fibrin micro-scaffolds has previously described above. Briefly, working solutions of PEG with 0.1 U/mL of thrombin were warmed to 37° C. and pipetted into a 96-well plate. For production of droplets, fibrinogen-DEX solutions with cell suspension were maintained at 37° C. and 4 μl per assay (unless otherwise noted) was pipetted directly into the PEG-thrombin media using a semi-automated repeater pipette (Repeater E3X; Eppendorf). Following dispensing of the DEX phase, the plates were placed in an ambient air incubator at 37° C. for 30 min to allow the thrombin to enzymatically crosslink the fibrinogen into a fibrin matrix (FIG. 6A). The PEG-enriched media was removed using a 12-channel micropipette and replaced with 100 μl of fully supplemented media in each well. When applicable, this media addition was supplemented with stimuli as detailed in example 17 below. For the duration of each experiment, assay plates were imaged every 2 hours at 4× with an automated cell culture monitoring system (Incucyte S3; Sartorius). As the assay proceeded, the fibroblasts progressively remodeled the fibrin scaffold as illustrated in FIG. 6C.
# After each experiment, the final projected areas of the cell-ECM spheroids were determined from brightfield images taken at the final time point using a benchtop imaging system (2× objective; EVOS M7000; ThermoFisher). These images were then segmented through a process of pixel classification, thresholding, and morphological filtering in order to isolate the cell-ECM construct area from the background.
# Pixel classification implemented Ilastic, a freely available image classification tool developed by the European Molecular Biology Laboratory. Ilastik's pixel classification utility implements a random forest classifier for quick and robust segmentation. In order to train the classifier, 10 characteristic images were selected to include different stages of ECM remodeling. In this step, each individual pixel is assigned a probability for belonging to layers for the background or the cell-ECM construct. Ilastik enables interactive training of the random forest classifier via user annotations of the training images. […]
# [3] = TGF-β1 treated (2 ng/mL), NHLF and IPF cells, 10 μM TM5275, 500 μM pirfenidone
molecule,measurement,setting,value
CCOC(=O)c1ccc(-c2ncc(C(=O)OCC)s2)nc1 [diethyl-pythiDC],impact on fibroblast-mediated fibrinolysis,[1],significantly (P<0.05) delayed fibrinolysis
OO [hydrogen peroxide],rate of cell-mediated fibrinolysis (50% degradation time),[1]; conditions that included TGF-β1 (2 ng/ml),no significant difference
same,rate of cell-mediated fibrinolysis (50% degradation time),[1]; no TGF-β1,highly significant decreases in the rates of fibrinolysis
COC(=O)c1ccc2c(c1)NC(=O)/C2=C(\Nc1ccc(N(C)C(=O)CN2CCN(C)CC2)cc1)c1ccccc1 [nintedanib],impact on fibroblast-mediated fibrinolysis,[1],did not show a significant impact on fibrinolysis
same,final area of spheroids,"[2]; all conditions (with and without TGF-β1; NHLF and IPF cells), 1 μM nintedanib",significant decreases in final area for all conditions
same,"final projected area, fibroblast donor variability","[2]; nintedanib, 2 normal and 2 IPF donors, one IPF donor not statistically significant (p<0.3)",reduced the final projected area
O=C(COCC(=O)N1CCN(C(c2ccccc2)c2ccccc2)CC1)Nc1ccc(Cl)cc1C(=O)O [TM5275],final area of spheroids,[2]; [3],decreased the spheroid area
same,spheroid area,"[2]; conditions that omitted TGF-β1, 10 μM TM5275",not in conditions that omitted TGF-β1
Cc1ccc(=O)n(-c2ccccc2)c1 [pirfenidone],impact on fibroblast-mediated fibrinolysis,[1],did not show a significant impact on fibrinolysis
same,final area of spheroids,[2]; [3],significant decrease in final area
B1,"matrix degradation, positive control",[1]; exogenous plasmin 1 U/ml,rapid matrix degradation
